Experiments:
[1] = system: Oocyte; assay: Inhibition of human AQP4b-mediated water transport in Xenopus oocytes at 20 uM; assay type: cell-based
[2] = Inhibition of human AQP4b-mediated water transport in Xenopus oocytes; details: Oocyte

CC(=O)Nc1ccc(S(N)(=O)=O)cc1
inhibition [1]: 23%

CCOc1ccc2nc(S(N)(=O)=O)sc2c1
inhibition [1]: 68%

CC(=O)Nc1nnc(S(N)(=O)=O)s1 [ACETAZOLAMIDE]
IC50 [2]: 900 nM

From ChEMBL document CHEMBL1144582, “Identification of arylsulfonamides as Aquaporin 4 inhibitors” (Bioorg Med Chem Lett, 2007)
